Calls of active or inactive are those of the source.
Columns and labels:
HEK293 [1] = experiment: membrane integrity loss in HEK cells – cell-based, fluorescence, cytotoxicity control for IDE activator project, dose response (AID 588440); format: functional; details: Homo sapiens;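 also: cytotoxicity by LDH release measuring loss of membrane integrity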
Insulin-degrading enzyme [2] = biological target: T1, Insulin-degrading enzyme (Homo sapiens, UniProt P14735); experiment: recombinant IDE activation, cell-free – biochemical, fluorescence polarization, counter-screen for IDE activator project, dose response (AID 588681)
T1 sequence (P14735 whole entry): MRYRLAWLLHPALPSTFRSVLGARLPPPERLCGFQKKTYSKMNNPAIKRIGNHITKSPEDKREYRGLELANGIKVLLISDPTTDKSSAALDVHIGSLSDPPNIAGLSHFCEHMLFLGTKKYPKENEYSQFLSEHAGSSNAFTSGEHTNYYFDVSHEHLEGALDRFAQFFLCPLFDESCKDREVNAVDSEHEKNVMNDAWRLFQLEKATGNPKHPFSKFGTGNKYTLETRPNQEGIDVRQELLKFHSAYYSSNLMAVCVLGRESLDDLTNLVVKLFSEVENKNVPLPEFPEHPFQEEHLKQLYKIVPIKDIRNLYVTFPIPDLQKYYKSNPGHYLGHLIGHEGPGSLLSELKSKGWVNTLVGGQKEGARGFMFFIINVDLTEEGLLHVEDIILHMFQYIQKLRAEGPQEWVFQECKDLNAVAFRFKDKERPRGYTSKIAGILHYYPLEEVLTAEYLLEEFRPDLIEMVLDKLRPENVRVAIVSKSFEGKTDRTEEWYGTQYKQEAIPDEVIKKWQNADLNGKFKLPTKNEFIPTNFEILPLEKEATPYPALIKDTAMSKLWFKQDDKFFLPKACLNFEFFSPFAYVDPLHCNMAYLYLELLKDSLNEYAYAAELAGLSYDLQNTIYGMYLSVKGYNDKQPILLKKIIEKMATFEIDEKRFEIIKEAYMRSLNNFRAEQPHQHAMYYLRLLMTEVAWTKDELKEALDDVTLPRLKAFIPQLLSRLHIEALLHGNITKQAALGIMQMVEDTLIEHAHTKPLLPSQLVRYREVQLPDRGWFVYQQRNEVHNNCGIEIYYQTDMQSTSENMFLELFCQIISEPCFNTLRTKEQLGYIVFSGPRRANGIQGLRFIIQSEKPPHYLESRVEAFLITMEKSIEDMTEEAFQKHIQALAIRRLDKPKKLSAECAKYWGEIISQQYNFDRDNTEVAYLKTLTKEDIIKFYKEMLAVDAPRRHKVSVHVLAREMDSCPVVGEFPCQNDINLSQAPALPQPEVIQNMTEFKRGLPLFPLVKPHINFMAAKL

HEK293 [3] = experiment: optical interference in Abeta FP readout, dose response, artefact control for IDE activator project, biochemical, fluorescence polarization (AID 588442); format: functional, cell-based; details: Homo sapiens
Insulin-degrading enzyme [4] = biological target: T1, Insulin-degrading enzyme; experiment: cellular IDE activation of Abeta substrate cleavage – fluorescence polarization, HEK cells, dose response (AID 588439); format: functional, cell-based
Phospholipase A2 = Phospholipase A2 (Homo sapiens, UniProt P04054); format: functional;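 also: confirmatory dose-response counterscreen on phospholipase A2, testing hits that came from an ultra-high-throughput screen for ATG4B inhibitors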
Chain of Phospholipase A2 (P04054 whole entry): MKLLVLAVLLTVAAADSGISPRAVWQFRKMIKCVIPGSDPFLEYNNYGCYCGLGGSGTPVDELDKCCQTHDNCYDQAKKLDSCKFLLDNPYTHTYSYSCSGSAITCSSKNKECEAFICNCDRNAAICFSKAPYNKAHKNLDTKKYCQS

Cysteine protease ATG4B = Cysteine protease ATG4B (Homo sapiens, UniProt Q9Y4P1); format: functional;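 also: Fluorescence-based dose-response confirmation assay measuring inhibition of ATG4B activity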
Chain of Cysteine protease ATG4B (Q9Y4P1 whole entry, the tested form may be a part): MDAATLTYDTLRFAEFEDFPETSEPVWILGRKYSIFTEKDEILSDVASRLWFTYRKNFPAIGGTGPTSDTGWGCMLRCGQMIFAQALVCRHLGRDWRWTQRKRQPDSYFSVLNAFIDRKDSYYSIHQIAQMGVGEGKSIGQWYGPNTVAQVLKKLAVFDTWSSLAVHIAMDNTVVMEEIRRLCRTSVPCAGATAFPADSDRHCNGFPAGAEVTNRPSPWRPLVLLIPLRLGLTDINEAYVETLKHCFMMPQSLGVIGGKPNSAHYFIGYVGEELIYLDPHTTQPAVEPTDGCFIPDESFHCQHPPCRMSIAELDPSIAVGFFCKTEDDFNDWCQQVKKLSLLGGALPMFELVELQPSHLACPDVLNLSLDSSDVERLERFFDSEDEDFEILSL

[5] = biological target: T2, Sentrin-specific protease 6 (Homo sapiens, UniProt Q9GZR1); experiment: inhibition of human SENP6 catalytic domain – biochemical, luminescence, set 2, SAR follow-up (AID 588598); format: functional
T2 sequence (Q9GZR1 whole entry): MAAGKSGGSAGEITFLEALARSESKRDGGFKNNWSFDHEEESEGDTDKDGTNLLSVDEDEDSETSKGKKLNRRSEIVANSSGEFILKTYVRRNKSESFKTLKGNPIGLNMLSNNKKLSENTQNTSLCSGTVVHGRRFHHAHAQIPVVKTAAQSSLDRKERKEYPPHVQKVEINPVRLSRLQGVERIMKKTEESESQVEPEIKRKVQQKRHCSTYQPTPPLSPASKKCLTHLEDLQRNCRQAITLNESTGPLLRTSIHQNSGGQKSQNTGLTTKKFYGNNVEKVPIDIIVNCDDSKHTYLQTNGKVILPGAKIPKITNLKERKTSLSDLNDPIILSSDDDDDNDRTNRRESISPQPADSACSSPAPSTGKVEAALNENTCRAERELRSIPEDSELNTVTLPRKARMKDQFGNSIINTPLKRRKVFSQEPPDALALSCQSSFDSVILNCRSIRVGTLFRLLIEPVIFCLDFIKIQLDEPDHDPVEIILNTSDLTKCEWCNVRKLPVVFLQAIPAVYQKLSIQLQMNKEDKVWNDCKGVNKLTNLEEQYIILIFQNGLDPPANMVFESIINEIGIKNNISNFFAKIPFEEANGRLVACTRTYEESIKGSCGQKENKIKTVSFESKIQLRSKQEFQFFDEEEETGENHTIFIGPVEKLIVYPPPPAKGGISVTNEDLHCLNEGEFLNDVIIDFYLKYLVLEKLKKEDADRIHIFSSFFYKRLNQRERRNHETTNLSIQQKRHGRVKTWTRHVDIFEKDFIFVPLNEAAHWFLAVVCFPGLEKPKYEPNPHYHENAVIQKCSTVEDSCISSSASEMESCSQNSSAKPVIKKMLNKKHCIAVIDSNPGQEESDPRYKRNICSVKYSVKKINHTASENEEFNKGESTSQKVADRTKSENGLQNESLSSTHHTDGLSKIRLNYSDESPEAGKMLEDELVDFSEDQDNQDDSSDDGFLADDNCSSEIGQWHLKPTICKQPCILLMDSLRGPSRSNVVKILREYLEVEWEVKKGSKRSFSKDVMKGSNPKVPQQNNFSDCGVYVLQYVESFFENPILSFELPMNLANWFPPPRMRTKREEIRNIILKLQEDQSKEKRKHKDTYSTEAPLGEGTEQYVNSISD

[6] = biological target: T3, Sentrin-specific protease 8 (Homo sapiens, UniProt Q96LD8); experiment: inhibition of sentrin protease 8 – biochemical, luminescence, set 2, SAR follow-up (AID 588601); format: functional
T3 sequence (Q96LD8 whole entry): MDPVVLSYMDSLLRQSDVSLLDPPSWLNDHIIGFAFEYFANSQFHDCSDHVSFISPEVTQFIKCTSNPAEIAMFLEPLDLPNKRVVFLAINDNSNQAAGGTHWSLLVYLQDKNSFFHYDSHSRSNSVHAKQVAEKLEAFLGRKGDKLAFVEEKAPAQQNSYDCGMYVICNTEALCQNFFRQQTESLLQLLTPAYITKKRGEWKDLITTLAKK

[7] = biological target: T4, Sentrin-specific protease 7 (Homo sapiens, UniProt Q9BQF6); experiment: inhibition of human SENP7 cleavage activity – biochemical, luminescence, set 2, SAR follow-up (AID 588600); format: functional
T4 sequence (Q9BQF6 whole entry): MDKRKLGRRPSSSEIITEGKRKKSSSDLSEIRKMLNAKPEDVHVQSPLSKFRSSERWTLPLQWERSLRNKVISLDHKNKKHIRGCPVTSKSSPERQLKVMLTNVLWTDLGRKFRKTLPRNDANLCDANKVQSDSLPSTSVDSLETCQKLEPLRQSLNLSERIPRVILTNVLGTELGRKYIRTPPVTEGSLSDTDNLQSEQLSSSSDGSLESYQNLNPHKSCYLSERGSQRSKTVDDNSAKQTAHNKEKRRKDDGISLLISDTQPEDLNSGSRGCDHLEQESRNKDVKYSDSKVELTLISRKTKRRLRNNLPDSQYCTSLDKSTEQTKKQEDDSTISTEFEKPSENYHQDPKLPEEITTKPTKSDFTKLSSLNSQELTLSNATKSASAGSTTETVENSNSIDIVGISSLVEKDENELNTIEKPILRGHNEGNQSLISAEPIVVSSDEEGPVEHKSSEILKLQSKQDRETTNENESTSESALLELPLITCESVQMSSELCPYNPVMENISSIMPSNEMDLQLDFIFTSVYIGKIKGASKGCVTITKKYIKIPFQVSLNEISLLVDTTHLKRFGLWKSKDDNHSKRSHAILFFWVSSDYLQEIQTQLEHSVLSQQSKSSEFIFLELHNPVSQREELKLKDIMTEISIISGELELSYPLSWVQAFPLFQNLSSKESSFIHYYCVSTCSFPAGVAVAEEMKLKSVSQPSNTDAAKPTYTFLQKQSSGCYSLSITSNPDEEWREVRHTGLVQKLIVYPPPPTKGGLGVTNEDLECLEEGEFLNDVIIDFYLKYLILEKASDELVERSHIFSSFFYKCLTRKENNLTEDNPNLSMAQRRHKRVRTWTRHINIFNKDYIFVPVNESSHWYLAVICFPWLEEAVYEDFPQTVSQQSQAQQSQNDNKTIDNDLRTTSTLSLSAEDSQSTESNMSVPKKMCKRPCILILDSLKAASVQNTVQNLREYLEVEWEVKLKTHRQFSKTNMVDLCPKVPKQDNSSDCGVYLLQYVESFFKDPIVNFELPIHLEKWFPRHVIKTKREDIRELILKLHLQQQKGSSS

Caspase-3 = biological target: T5, Caspase-3 (Homo sapiens, UniProt P42574); experiment: inhibition of recombinant caspase-3 activity – biochemical, luminescence, set 2, selectivity assay for SENP protease inhibitor project, SAR follow-up (AID 588599); format: functional
T5 sequence (P42574 whole entry): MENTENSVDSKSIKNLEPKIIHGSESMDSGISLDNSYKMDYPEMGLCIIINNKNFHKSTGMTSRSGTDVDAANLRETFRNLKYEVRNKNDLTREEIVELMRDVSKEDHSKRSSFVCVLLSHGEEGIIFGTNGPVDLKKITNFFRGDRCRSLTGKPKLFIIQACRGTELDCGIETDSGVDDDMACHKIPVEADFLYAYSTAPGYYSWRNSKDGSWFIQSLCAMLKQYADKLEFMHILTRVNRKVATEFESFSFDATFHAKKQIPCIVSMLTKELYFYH

[8] = biological target: T6, Beta-adrenergic receptor kinase 1 (Homo sapiens, UniProt P25098); experiment: aptamer displacement from bead-bound GRK2 – biochemical, cherry pick 1, bead flow cytometry, dose response (AID 504500)
T6 sequence (P25098 whole entry): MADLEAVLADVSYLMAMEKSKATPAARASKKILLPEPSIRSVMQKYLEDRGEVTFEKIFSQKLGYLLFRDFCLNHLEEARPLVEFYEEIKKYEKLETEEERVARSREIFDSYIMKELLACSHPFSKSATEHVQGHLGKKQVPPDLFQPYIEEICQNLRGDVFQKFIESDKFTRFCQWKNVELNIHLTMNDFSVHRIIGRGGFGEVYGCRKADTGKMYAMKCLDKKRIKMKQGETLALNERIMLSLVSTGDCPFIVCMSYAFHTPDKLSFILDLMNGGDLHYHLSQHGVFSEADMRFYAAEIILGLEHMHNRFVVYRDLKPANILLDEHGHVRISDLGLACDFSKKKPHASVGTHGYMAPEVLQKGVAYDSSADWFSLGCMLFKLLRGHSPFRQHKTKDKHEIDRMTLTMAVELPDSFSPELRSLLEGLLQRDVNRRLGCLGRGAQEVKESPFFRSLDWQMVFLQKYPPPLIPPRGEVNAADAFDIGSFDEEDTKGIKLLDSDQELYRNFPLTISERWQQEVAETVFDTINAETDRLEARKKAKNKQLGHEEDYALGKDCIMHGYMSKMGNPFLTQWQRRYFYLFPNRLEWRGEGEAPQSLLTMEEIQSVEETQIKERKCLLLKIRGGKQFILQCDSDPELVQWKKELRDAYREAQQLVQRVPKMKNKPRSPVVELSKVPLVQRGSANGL

[9] = biological target: Apoptotic protease-activating factor 1 (Homo sapiens, UniProt O14727); experiment: activation of Apaf-1 mediated apoptosis – fluorescent, uHTS hits, dose response (AID 588554); format: functional
Chain of Apoptotic protease-activating factor 1 (O14727 whole entry): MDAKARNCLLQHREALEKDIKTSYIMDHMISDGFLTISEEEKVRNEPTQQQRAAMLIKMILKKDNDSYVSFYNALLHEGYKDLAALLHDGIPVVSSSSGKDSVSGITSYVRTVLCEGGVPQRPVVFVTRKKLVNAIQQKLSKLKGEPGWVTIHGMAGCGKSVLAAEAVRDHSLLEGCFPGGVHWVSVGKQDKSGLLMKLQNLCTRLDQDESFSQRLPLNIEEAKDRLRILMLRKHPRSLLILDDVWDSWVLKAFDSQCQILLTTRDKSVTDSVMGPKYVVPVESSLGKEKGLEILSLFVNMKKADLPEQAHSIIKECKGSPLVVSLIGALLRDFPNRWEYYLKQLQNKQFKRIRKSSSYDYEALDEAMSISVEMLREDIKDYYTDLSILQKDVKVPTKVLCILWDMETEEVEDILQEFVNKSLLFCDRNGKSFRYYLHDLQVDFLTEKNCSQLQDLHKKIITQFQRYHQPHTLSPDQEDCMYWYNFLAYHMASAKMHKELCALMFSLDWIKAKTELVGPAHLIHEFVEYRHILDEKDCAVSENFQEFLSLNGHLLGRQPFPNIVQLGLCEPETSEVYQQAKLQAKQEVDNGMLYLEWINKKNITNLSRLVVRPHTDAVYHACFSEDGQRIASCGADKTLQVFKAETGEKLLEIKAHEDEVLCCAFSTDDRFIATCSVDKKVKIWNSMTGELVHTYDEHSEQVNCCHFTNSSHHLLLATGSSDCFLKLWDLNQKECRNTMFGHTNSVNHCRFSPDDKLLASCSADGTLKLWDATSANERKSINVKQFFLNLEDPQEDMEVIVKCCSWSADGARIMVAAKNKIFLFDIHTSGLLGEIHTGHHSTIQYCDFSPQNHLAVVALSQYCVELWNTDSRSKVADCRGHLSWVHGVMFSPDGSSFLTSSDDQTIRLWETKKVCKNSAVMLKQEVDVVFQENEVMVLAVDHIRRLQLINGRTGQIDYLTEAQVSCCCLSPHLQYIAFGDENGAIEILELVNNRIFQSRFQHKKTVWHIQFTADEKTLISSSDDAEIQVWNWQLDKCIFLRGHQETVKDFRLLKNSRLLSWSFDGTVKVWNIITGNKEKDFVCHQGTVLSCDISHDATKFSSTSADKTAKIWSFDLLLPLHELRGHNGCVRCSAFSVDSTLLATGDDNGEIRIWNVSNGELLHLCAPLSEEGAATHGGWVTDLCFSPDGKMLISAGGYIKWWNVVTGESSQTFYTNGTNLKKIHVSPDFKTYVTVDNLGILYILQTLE

[10] = biological target: Induced myeloid leukemia cell differentiation protein Mcl-1 (Homo sapiens, UniProt Q07820); format: functional
Chain of Induced myeloid leukemia cell differentiation protein Mcl-1 (Q07820 whole entry): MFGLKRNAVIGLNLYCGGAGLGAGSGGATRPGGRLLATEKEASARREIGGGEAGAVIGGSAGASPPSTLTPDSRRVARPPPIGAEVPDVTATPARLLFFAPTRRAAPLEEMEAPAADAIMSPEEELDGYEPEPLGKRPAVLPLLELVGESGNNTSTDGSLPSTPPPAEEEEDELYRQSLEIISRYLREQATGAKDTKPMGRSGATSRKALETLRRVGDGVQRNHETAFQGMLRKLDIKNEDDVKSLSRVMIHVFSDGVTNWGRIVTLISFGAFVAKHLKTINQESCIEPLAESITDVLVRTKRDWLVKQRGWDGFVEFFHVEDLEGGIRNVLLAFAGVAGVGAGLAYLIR

[11] = biological target: T7, Bifunctional protein GlmU (Mycobacterium tuberculosis, UniProt P9WMN3); experiment: Inhibitors of Mycobacterial Glucosamine-1-phosphate acetyl transferase (GlmU). Secondary screen.; set-up: species or system Mycobacterium tuberculosis H37Rv
T7 sequence (P9WMN3 whole entry): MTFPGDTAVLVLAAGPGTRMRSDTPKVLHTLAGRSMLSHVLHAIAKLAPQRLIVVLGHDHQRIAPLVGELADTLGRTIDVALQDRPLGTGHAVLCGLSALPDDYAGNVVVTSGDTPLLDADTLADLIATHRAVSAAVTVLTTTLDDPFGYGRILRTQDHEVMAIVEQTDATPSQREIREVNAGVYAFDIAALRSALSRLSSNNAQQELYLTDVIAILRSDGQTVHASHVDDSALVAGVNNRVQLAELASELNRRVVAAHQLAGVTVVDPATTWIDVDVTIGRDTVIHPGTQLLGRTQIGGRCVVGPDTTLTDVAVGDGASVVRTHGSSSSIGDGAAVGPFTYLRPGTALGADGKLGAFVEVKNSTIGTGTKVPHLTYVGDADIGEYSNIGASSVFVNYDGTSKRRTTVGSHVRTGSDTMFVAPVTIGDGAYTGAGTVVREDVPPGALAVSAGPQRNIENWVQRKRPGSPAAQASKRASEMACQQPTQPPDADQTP

CCN(CC)CCNC(=O)C[S+]([O-])Cc1nc(-c2ccccc2Cl)oc1C (stereo unspecified)
IC50 (HEK293 [1]): > 89.2 µM (inactive) | EC50 (Insulin-degrading enzyme [2]): > 54.7 µM (inactive) | EC50 (HEK293 [3]): > 55.9 µM (inactive) | EC50 (Insulin-degrading enzyme [4]): > 54.7 µM (inactive)

CCN(CC(=O)N1CCc2ccccc2C1)S(=O)(=O)c1ccc2ccccc2c1
IC50 (Phospholipase A2): 4.17 µM (active) | IC50 (Cysteine protease ATG4B): 23.7 µM (inactive)

Cc1[nH]c2ccccc2c1C(=O)C(=O)NCc1cc(-c2cc3ccccc3o2)on1
IC50 [5]: > 99 µM (inactive) | IC50 [6]: > 99 µM (inactive) | IC50 [7]: > 99 µM (inactive) | IC50 (Caspase-3): > 99 µM (inactive)

O=C(Nc1c(Cl)cccc1Cl)c1cc(-c2ccco2)on1
IC50 (Phospholipase A2): 6.14 µM (active) | IC50 (Cysteine protease ATG4B): 13.2 µM (active)

C=C(C)C(=O)Nc1cccc(C2=NOC3(C2)C[C@H](C(N)=O)N(C(=O)C(c2ccccc2)c2ccccc2)C3)c1 (stereo partly specified)
EC50 [8]: 85.9 µM (inactive) | EC50 [9]: 11.4 µM (active) | IC50 [10]: 3.12 µM (active) | IC50 [11]: 167 µM (active)
